Legend:
Assay type in all cases: cell-based
[1] = test system: A549 cells; test: Expression of inflammatory cytokines (SASP) by RT-qPCR; details: 5 days after treatment
Experimental: The expression of inflammation-related genes such as inflammatory cytokine genes is increased in senescent cells. It is known that a phenomenon called SASP (senescence-associated secretory phenotype) is thereby induced. In order to study whether this phenomenon was induced in the A549 cells, the cells were recovered 5 days after CCC021-TPP treatment in the same manner as in Example 1, and RNA extraction, RNA reverse-transcription, cDNA synthesis, and RT-qPCR were performed in the same manner as in Example 1 to examine the expression of inflammatory cytokines (IL-1A, IL-1B, IL-6, and IL-8) in the A549 cells and the PC14 cells. The primers used for the amplification of each gene are shown below. For qPCR, amplification was performed under conditions involving a holding stage of 50° C. for 2 min→95° C. for 10 min followed by 40 cycles of a cycling stage each involving 95° C. for 15 sec→60° C. for 1 min using Applied Biosystems(R) 7500 real-time PCR system, and melt curve analysis after amplification was conducted at a melt curve stage of 95° C. for 15 sec→60° C. for 1 min→95° C. for 15 sec→60° C. for 15 sec to confirm reaction specificity from the absence of primer dimer by-products or the like in PCR products.

[2] = test system: A549 cells; test: Synthetic lethality: cell morphology with CCC021-TPP and ABT-263; details: days 2 and 4
From the text: Since the suppression of cell death in the cellular senescence of the A549 cells was presumably due to the BCL pathway, it was believed that the apoptosis of cells whose cellular senescence was evoked by CCC021-TPP could be induced by combined use with ABT-263 (Cayman Chemical Company) serving as a senolytic drug and a BCL pathway inhibitor. Thus, the possibility of inducing the cell death of senescent cells by CCC021-TPP treatment and combined use with the BCL2/BCL-XL inhibitor ABT-263 was observed under an optical microscope to observe change in cell morphology. Five hundred A549 cells were inoculated to a 96-well plate, cultured for 24 hours, and then observed over time under an optical microscope either without administration or after administration of 20 μM CCC021-TPP and 10 μM ABT-263 each used alone or used concurrently, and cell morphology was photographed on days 2 and 4.

[3] = test system: A549 cells; test: Autophagy by anti-LC3 / cytochrome C immunofluorescent staining; details: 20 μM, 4-day treatment
From the text: A possible cause of cellular senescence was the induction of mitochondrion-specific autophagy (mitophagy) of mutant mitochondria by the administration of CCC021-TPP. It is considered that the excessive production of reactive oxygen species in association therewith was involved in the induction of cellular senescence.

[4] = test system: PC14 cells; test: Trypan blue assay of live cell numbers; details: PC14, 7 days later
Experimental: (§1) The A549 cells and the PC14 cells were inoculated at 5×10^3 cells/dish and 1×10^4 cells/dish, respectively, to 35 mm glass base dishes (IWAKI, Japan), cultured for 24 hours, and then treated with CCC021-TPP (final concentration: 20 μM). Further, 24 hours later, the culture solution was discarded, and a DMEM culture solution containing Mito Tracker(R) Red CMXRos (Life Technologies, USA) was added to attain 100 nM. 30 minutes later, the cells were washed twice with PBS, then fixed in 4% PFA for 30 minutes, then medium-replaced with PBS, preserved at 4° C., immunostained with the antibody by the method described in Example 1, and observed under confocal laser microscope SP8 (Leica, Germany). […] A549 and PC14 were each inoculated at 5×10^2 cells/well to 16 wells of a 96-well plate, cultured for 24 hours, and then treated with CCC021-TPP at 0, 1, 2, 5, 10, 25, and 50 μM each for 2 wells. 5 days later, the cells were reacted at room temperature for 2 hours using CytoSelect™ MTT Cell Proliferation Assay (Cosmo Bio Co., Ltd.), followed by the measurement of absorbance at 590 nm with SPECTRAFLUOR Plus (Tecan Group Ltd.) to conduct a rechallenge experiment of cell proliferation. […] 7 days later, as for change in the live cell numbers of the A549 cells and the PC14 cells, the live cell numbers were measured by trypan blue staining to experimentally examine cell survival rates.

[5] = test system: A549 cells; test: Trypan blue assay of live cell numbers; details: A549, 7 days later
Experimental: as §1

[6] = test system: A549 cells; test: GFP-LC3 transfection and Mito Tracker Red fluorescence observation; details: 20 μM, 4 days
Experimental: 5×10^4 cells were inoculated and cultured for 24 hours. Then, 500 μL of OptiMEM, 10 μg of vector DNA (7.5 μL of P3000 reagent), and 20 μL of Lipofectamine(R) 3000 (Thermo Fisher Scientific) were added to the cells, which were then left at room temperature for 5 minutes for transfection and cultured for 24 hours. Then, 1000 subcultured cells were inoculated, cultured with 20 μM CCC021-TPP for 4 days, and then confirmed by fluorescence observation with Mito Tracker Red.

[7] = test system: PC14 cells; test: MTT cell proliferation assay; details: PC14, 5 days
Experimental: as §1

[8] = test system: A549 cells; test: MTT cell proliferation assay
Experimental: as §1

[9] = test system: PC14 cells; test: Long-term cell proliferation, cell numbers counted for 8 days; details: 20 μM
Experimental: The suppression of cell proliferation was further observed in the A549 and PC14 cells mentioned above for a long period. The observation was performed for 8 days under the culture conditions described above (both the mtDNA mutation cell line A549 and the PC14 cell line having no mutation were inoculated at 1×10^3 cells/well, cultured for 24 hours, and then treated with CCC021-TPP (final concentration: 20 μM)), and cell numbers were counted.

[10] = test system: A549 cells; test: Synthetic lethality: cell morphology with CCC021-TPP and ABT-199 or A1155463; details: 4 days
Experimental: It was confirmed with the BCL2- and BCL-XL-specific inhibitor that the suppression of cell death in the cellular senescence of the A549 cells was presumably due to the BCL pathway. The type of BCL pathway inhibition, combined use of which could induce cell death (apoptosis) in the senescent cells of the A549 cells was studied. Five hundred A549 cells were inoculated to a 96-well plate and cultured for 24 hours. Then, change in cell morphology was photographed under an optical microscope either without administration (i.e., after DMSO treatment) or 4 days after treatment with 20 μM CCC021-TPP and 10 μM BCL2 inhibitor ABT-199 (compound venetoclax of No. 33 in FIG. 55-10) or 10 μM BCL-XL inhibitor A1155463 (compound of No. 16 in FIG. 55-6) each alone, or treatment by combined use of the same concentration of CCC021-TPP with the same concentration of ABT-199 or A1155463.

Compound: CN(C)CCCNC(=O)CCNC(=O)c1cc(NC(=O)c2cc(NC(=O)CCNC(=O)c3nc(NC(=O)c4cc(NC(=O)c5cc(NC(=O)CCNC(=O)CCCC[P+](c6ccccc6)(c6ccccc6)c6ccccc6)cn5C)cn4C)cn3C)cn2C)cn1C [CCC021-TPP]
- expression of IL-1A [1]: significantly increased expression
- expression of IL-6 [1]: tendency to increase the expression
- expression of IL-8 [1]: significantly increased expression
- cells that underwent apoptosis (morphology) ([2]; combined use of 20 μM CCC021-TPP and 10 μM ABT-263): cells that evidently underwent apoptosis were already found
- cells that underwent apoptosis (morphology) ([2]; each used alone: 20 μM CCC021-TPP, 10 μM ABT-263): not detected
- mitophagy (colocalization of LC3 and cytochrome C) [3]: mitophagy was induced
- viability (trypan blue) [4]: no influence on the viability
- viability (trypan blue) [5]: no influence on the viability
- localization of GFP-LC3 on mitochondria [6]: colocalized with red fluorescence from Mito Tracker Red
- IC50 (MTT assay) [7]: incalculable
- cell morphology after administration ([8]; A549): senescent morphology
- IC50 ([8]; Homo sapiens, 120 h, A549, 5 days): 7.97 µM
- cell number / proliferation [9]: neither significant difference in cell number nor a cell proliferation suppressive effect was found
- cell death (morphology) ([10]; 20 μM CCC021-TPP and 10 μM A1155463 used concurrently): markedly increased numbers of cells that underwent apoptosis
- cell death (morphology) ([10]; single administration: 20 μM CCC021-TPP, 10 μM ABT-199, 10 μM A1155463): Any finding indicating cell death was not obtained

Source: patent US20220193241A1, “AGENT TARGETING DOUBLE-MEMBRANE ORGANELLE DNA” (CHIBA-PREFECTURE, priority 2019, published 2022)
